Patent publication US5385922A, “Thiazolidine derivatives” (Cedona Pharmaceuticals B.V., priority 1990, dated 1995)
pEC50: −log10 of the molar value. Where a name gives a salt, the structure may show the parent alone.

System: contracted rat aorta
Experiment: In vitro rat aorta assay: relaxation of aorta strips contracted with phenylephrine
Type: cell-based
Conditions: rat aorta strips contracted with 10^-7 M phenylephrine; read-out: EC50 (mean): concentration at which residual contraction is 50% of maximum
Procedure: Strips of thoracial rat aortae (without aortic arch, helically cut; length 1-1.5 cm; width about 2 mm) were place in an organ bath [20 ml; Krebs Ringer medium bubbled with O2 /CO2 (95/5%) at 37° C.]. A resting tension of 0.5 g was applied and the preparations were equilibrated during 100 min (fresh buffer solution every 20 min). The strips were isotonically contracted with 10^-7 M phenylephrine.
Drug-induced relaxation was tested at increasing concentration (half log steps), till maximal or full relaxation (corresponding to basal precontraction value of organ length) had been reached.
Responses were calculated as change in organ length relatively to maximal displacement by contraction, EC50 values corresponding to the drug concentration at which residual contraction is 50% of maximum.

Compound: 2-Butyl-5,5-dimethyl-N-(4-methylbenzenesulphonyl)-4-[(5-nitroxyisosorbide)carbonyl]thiazolidine [Example IV]
- pEC50: 5.02

Compound: 4-Carboxy-2-[3-4-(2-nitroxyethoxy)phenyl]thiazolidine [Example XXXV]
- pEC50: 7.27

Compound: CCCCC1SCC(C(=O)OC2COC3C(O[N+](=O)[O-])COC23)N1S(=O)(=O)c1ccc(C)cc1 (stereo not shown) [Example I, 2-Butyl-N-(4-methylbenzenesulphonyl)-4-[(5-nitroxyisosorbide)carbonyl]thiazolidine]
- pEC50: 6.12

Compound: CCCCC1SCC(C(=O)OC2COC3C(O[N+](=O)[O-])COC23)N1C(=O)c1ccccc1 (stereo not shown) [Example II, N-benzoyl-4-[(5-nitroxyisosorbide)carbonyl]-2-butylthiazolidine]
- pEC50: 6.13

Compound: O=C(COc1ccccc1C1NC(C(=O)O)CS1)NCCO[N+](=O)[O-] (stereo not shown) [Example IX, 4-Carboxy-2-{2-[(2-nitroxyethyl)aminocarbonylmethoxyl]phenyl}thiazolidine]
- pEC50: 6.15

Compound: O=C(NCCO[N+](=O)[O-])c1ccc(C2NC(C(=O)O)CS2)cc1 (stereo not shown) [Example V, 4-Carboxy-2-{4-[(2-nitroxyethyl)aminocarbonyl]phenyl}thiazolidine]
- pEC50: 6.48

Compound: CC(=O)N1C(C(=O)NCCO[N+](=O)[O-])CSC1c1ccccc1C(=O)O (stereo not shown) [Example VI, N-acetyl-2-(2-carboxyphenyl)-4-[(2-nitroxyethyl)aminocarbonyl]thiazolidine]
- pEC50: 5.79

Compound: CCOC(=O)C1CSC(c2ccc(C(=O)NCCO[N+](=O)[O-])cc2)N1 (stereo not shown) [Example VII, 4-Ethoxycarbonyl-2-{4-[(2-nitroxyethyl)aminocarbonyl]phenyl}thiazolidine×HCl]
- pEC50: 7.70

Compound: CC(=O)N1C(C(=O)NCCO[N+](=O)[O-])CSC1c1ccccc1 (stereo not shown) [Example VIII, N-acetyl-2-phenyl-4-[(2-nitroxyethyl)aminocarbonyl]thiazolidine]
- pEC50: 5.73

Compound: COc1cc(C2NC(C(=O)O)CS2)ccc1OCC(=O)NCCO[N+](=O)[O-] (stereo not shown) [Example X, 4-Carboxy-2{3-methoxy-4-[(2-nitroxyethyl)aminocarbonylmethoxy]phenyl}thiazolidine]
- pEC50: 6.41

Compound: CCOC(=O)C1CSC(c2ccc(OCC(=O)NCCO[N+](=O)[O-])c(OC)c2)N1 (stereo not shown) [Example XI, 4-Ethoxycarbonyl-2-{[3-methoxy-4-(2-nitroxyethyl)aminocarbonylmethoxy]phenyl}-thiazolidine hydrochloride]
- pEC50: 6.57

Compound: CCOc1cccc(C2NC(C(=O)O)CS2)c1OCCO[N+](=O)[O-] (stereo not shown) [Example XII, 4-Carboxy-2-[3-ethoxy-2-(2-nitroxyethoxy)phenyl]thiazolidine]
- pEC50: 6.19

Compound: COc1cccc(C2NC(C(=O)O)CS2)c1OCCO[N+](=O)[O-] (stereo not shown) [Example XIV, 4-Carboxyl-2-[3-methoxy-2-(2-nitroxyethoxy)phenyl]thiazolidine]
- pEC50: 6.64

Compound: CC(=O)N1C(C(=O)O)CSC1c1ccccc1OCCO[N+](=O)[O-] (stereo not shown) [Example XVII, N-acetyl-4-carboxy-2-[2-(2-nitroxyethoxy)phenyl]thiazolidine]
- pEC50: 6.14

Compound: O=C(O)C1CSC(c2cccc(OCCO[N+](=O)[O-])c2)N1 (stereo not shown) [Example XVIII, 4-Carboxy-2-[3-(2-nitroxyethoxy)phenyl]thiazolidine]
- pEC50: 7.33

Compound: O=C(COc1ccc(C2NC(C(=O)O)CS2)cc1)NCCO[N+](=O)[O-] (stereo not shown) [Example XXIV, 4-Carboxy-2-{4-[(2-nitroxyethyl)aminocarbonylmethoxy]phenyl}thiazolidine]
- pEC50: 6.05

Compound: O=C(O)C1CSC(c2ccccc2OCCCO[N+](=O)[O-])N1 (stereo not shown) [Example XXXII, 4-Carboxy-2-[2-(3-nitroxypropoxy)phenyl]thiazolidine]
- pEC50: 7.43

Compound: O=[N+]([O-])OCCOc1cccc(C2NCCS2)c1 (stereo not shown) [XIX, 2-[3-(2-Nitroxyethoxy)phenyl]thiazolidine×HCl]
- pEC50: 8.01

Compound: COc1cc(C2NC(C(=O)O)CS2)cc(Br)c1OCCO[N+](=O)[O-] (stereo not shown) [XXIII, 2-[3-Bromo-5-methoxy-4-(2-nitroxyethoxy)phenyl]-4-carboxythiazolidine]
- pEC50: 6.09
